These results are taken from patent US20240051931A1, “HDAC INHIBITORS” (University of Pittsburgh - Of the Commonwealth System of …, priority 2020, published 2024).

Data set [1] has as its system PanHDAC. Description: PanHDAC activity at fixed concentration (Table 2). Format: biochemical. Further details: unit not given here. The note with it: compound at 1 uM.
The target in data set [2] is T1, HDAC 6 (Homo sapiens, UniProt Q9UBN7).
T1 sequence (Q9UBN7 1-1215): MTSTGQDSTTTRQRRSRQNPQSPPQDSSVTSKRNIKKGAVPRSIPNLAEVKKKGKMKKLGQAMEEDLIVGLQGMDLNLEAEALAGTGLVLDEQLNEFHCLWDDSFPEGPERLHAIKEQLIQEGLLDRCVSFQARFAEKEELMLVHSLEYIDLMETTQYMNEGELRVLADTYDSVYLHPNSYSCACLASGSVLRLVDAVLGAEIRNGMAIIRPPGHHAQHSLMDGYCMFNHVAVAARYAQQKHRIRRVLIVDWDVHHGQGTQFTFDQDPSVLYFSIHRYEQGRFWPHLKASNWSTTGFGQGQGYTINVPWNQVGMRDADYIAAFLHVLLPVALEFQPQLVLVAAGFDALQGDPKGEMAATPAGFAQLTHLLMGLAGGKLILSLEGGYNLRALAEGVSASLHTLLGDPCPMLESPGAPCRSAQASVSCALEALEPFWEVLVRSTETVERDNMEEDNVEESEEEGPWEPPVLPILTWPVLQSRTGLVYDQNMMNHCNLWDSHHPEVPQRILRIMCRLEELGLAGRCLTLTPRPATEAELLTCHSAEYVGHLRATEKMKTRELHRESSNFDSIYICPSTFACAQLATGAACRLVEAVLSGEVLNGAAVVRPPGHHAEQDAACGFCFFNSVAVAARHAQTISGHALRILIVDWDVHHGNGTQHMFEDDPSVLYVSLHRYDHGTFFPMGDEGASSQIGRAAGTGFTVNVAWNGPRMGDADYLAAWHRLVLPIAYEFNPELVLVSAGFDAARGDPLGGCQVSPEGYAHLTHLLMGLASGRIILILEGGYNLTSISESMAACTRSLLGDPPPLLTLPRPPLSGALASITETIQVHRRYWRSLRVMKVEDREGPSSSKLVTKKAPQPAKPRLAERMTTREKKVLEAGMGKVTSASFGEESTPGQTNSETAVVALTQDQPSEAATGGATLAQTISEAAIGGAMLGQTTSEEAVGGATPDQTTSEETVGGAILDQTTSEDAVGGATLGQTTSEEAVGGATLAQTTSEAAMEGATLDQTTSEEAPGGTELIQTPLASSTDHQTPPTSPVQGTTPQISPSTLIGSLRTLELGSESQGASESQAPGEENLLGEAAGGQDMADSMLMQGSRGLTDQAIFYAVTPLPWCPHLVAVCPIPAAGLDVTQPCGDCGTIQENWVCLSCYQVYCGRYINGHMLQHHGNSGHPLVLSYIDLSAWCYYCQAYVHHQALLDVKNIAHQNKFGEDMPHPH
Description: HDAC 6 activity at fixed concentration (Table 2). Set-up: unit not given here. The note with it: compound at 50 nM. The class given is biochemical.

Consider `Cl.O=C(CN1CCC2(CCc3cc(F)ccc3O2)CC1)NO`, for which the melting point was 200 to 203 °C.
On the same count and under the same terms, then `O=C(Nc1cccc2c1OC(C(=O)NO)CC2)OCc1ccccc1Cl` (racemic) [Compound 11L, 2-Chlorobenzyl (2-(hydroxycarbamoyl)chroman-8-yl)carbamate], with 182 to 188 °C; and `C[C@@H]1Cc2ccccc2O[C@@H]1C(=O)NO` (relative stereo) [Compound 73, (rel)-(2S,3R)—N-Hydroxy-3-methylchromane-2-carboxamide], with 156 to 160 °C; and `CO[C@@H]1C[C@@H](C(=O)NO)Oc2ccccc21` (relative stereo) [Compound 85, (rel)-(2S,4R)—N-Hydroxy-4-methoxychromane-2-carboxamide], with 102 to 104 °C.
The same measure, in the same setting: as for `O=C(NO)[C@@H]1CCc2ccc(-c3ccc(F)c(Cl)c3)cc2O1` [(S)-58d, (S)-7-(3-Chloro-4-fluorophenyl)-N-hydroxychromane-2-carboxamide], the figure is 173 to 174 °C; as for `O=C(NO)[C@@H]1CCc2ccc(-c3ccc(Cl)c(Cl)c3)cc2O1` [(S)-58e, (S)-7-(3,4-Dichlorophenyl)-N-hydroxychromane-2-carboxamide], 134 to 136 °C.
Compound `O=C(Nc1cccc2c1O[C@@H](C(=O)NO)CC2)OCc1ccccc1Cl` [+11L, 2-Chlorobenzyl (R)-(2-(hydroxycarbamoyl)chroman-8-yl)carbamate] came in with a melting point of 173 to 175 °C.
In the case of `O=C(NO)C1CCc2ccc(OCCc3ccccc3)cc2O1` (stereo not drawn) [Compound 1-49], the “PanHDAC at 1 uM” value in data set [1] came to 0. In data set [2], the “HDAC 6 at 50 nM” value was determined as 0.
As to `O=C(NO)C1CCc2ccc(OCc3ccc(Cl)cc3)cc2O1` (stereo not drawn) [Compound 1-50], the “PanHDAC at 1 uM” value in data set [1] turned out to be 0. For the same compound, the “HDAC 6 at 50 nM” value in data set [2] came to 48.
With `O=C(NO)C1CCc2cc(NS(=O)(=O)c3cccc4ccccc34)ccc2O1` (stereo not drawn) [Compound 1-51], the “PanHDAC at 1 uM” value in data set [1] came out at 8. Also, the “HDAC 6 at 50 nM” value in data set [2] was found to be 64.
In the same order, the values of `COc1ccc(CNC(=O)Nc2ccc3c(c2)CCC(C(=O)NO)O3)cc1` (stereo not drawn) [Compound 1-52] are 0 and 0.
For `O=C(COc1ccccc1Cl)Nc1cccc2c1O[C@H](C(=O)NO)CC2` [Compound 1-53], in that order: 0 and 25.
For `O=C(NO)C1CCc2ccc(-c3ccc(Cl)c(Cl)c3)cc2O1` (stereo not drawn) [Compound 1-54], in that order: 0 and 39.
Take `Cn1ccc2cc(-c3ccc4c(c3)OC(C(=O)NO)CC4)ccc21` (stereo not drawn) [Compound 1-55]: the “PanHDAC at 1 uM” value in data set [1] was 0. The “HDAC 6 at 50 nM” value in data set [2] was found to be 44.
With `COc1ccc(-c2ccc3c(c2)OC(C(=O)NO)CC3)cc1` (stereo not drawn) [Compound 1-56], the “PanHDAC at 1 uM” value in data set [1] is reported as 0. Also, in data set [2], the “HDAC 6 at 50 nM” value amounted to 13.
In the same order, the values of `O=C(Nc1ccc2c(c1)CC[C@@H](C(=O)NO)O2)c1ccc(-c2ccccc2)cc1` [Compound 1-57] are 0 and 7.
For `O=C(NO)[C@H]1CCc2ccc(OCc3ccc(Cl)cc3)cc2O1` [Compound 1-58], in that order: 0 and 31.
In the same order, the values of `O=C(NO)[C@@H]1CCc2ccc(OCc3ccc(Cl)cc3)cc2O1` [Compound 1-59] are 0 and 0.
With `COc1cccc(COC(=O)Nc2cccc3c2O[C@H](C(=O)NO)CC3)c1` [Compound 1-60], the “PanHDAC at 1 uM” value in data set [1] amounted to 0. The “HDAC 6 at 50 nM” value in data set [2] was found to be 33.
For `O=C(NO)[C@@H]1CCc2ccc(-c3ccc(Cl)c(Cl)c3)cc2O1` [Compound 1-61], in that order: 0 and 41.
For `O=C(Nc1cccc2c1O[C@H](C(=O)NO)CC2)OCc1ccc(Cl)cc1` [Compound 1-62], in that order: 0 and 32.
On to `O=C(Nc1cccc2c1O[C@H](C(=O)NO)CC2)OCc1ccc(Cl)c(Cl)c1` [Compound 1-63], for which the “PanHDAC at 1 uM” value in data set [1] is 0. For the same compound, the “HDAC 6 at 50 nM” value in data set [2] stood at 45.
In the same order, the values of `O=C(NO)[C@@H]1CCc2ccc(-c3ccc(F)c(Cl)c3)cc2O1` [Compound 1-64] are 3 and 47.
Turning to `O=C(NO)[C@@H]1CCc2ccc(OCc3ccccc3Cl)cc2O1` [Compound 1-65], the “PanHDAC at 1 uM” value in data set [1] is 0. In data set [2], the “HDAC 6 at 50 nM” value came to 17.
For `COc1ccccc1COC(=O)Nc1cccc2c1O[C@H](C(=O)NO)CC2` [Compound 1-66], the “PanHDAC at 1 uM” value in data set [1] is given as 0. The “HDAC 6 at 50 nM” value in data set [2] amounted to 31.
In turn, `O=C(Nc1ccc(F)cc1)Nc1cccc2c1OC(C(=O)NO)CC2` (stereo not drawn) [Compound 11c, 8-(3-(4-Fluorophenyl)ureido)-N-hydroxychromane-2-carboxamide] displayed a melting point of 231 to 232 °C.
On to `O=C(NCc1ccccc1)Nc1cccc2c1OC(C(=O)NO)CC2` (stereo not drawn) [Compound 11e, 8-(3-Benzylureido)-N-hydroxychromane-2-carboxamide], for which the melting point was in the range of 187 to 190 °C.
Still for that read-out and setting: as for `O=C(Nc1cccc2c1OC(C(=O)NO)CC2)OCc1ccc(C(F)(F)F)cc1` (stereo not drawn) [Compound 11f, 4-(Trifluoromethyl)benzyl (2-(hydroxycarbamoyl)chroman-8-yl)carbamate], the figure is 102 to 104 °C.
For the compound `COc1cccc(COC(=O)Nc2cccc3c2O[C@H](C(=O)NO)CC3)c1` [Compound 11g, 3-methoxybenzyl (S)-(2-(hydroxycarbamoyl)chroman-8-yl)carbamate], the melting point was in the range of 71 to 73 °C.
Still for that read-out and setting: then `O=C(Nc1cccc2c1O[C@H](C(=O)NO)CC2)OCc1ccc(Cl)cc1` [Compound 11h, 4-Chlorobenzyl (S)-(2-(hydroxycarbamoyl)chroman-8-yl)carbamate], with 155 to 157 °C; and `O=C(NO)C1CCc2cccc(NS(=O)(=O)c3ccc(F)cc3)c2O1` (stereo not drawn) [Compound 11m, 8-((4-Fluorophenyl)sulfonamido)-N-hydroxychromane-2-carboxamide], with 237 to 239 °C.
In turn, `O=C(NO)C1CCc2cccc(NS(=O)(=O)c3cccc4ccccc34)c2O1` (stereo not drawn) [Compound 11n, N-Hydroxy-8-(naphthalene-1-sulfonamido)chromane-2-carboxamide] returned a melting point of 219 to 221 °C.
The compound `CS(=O)(=O)Nc1cccc2c1OC(C(=O)NO)CC2` (stereo not drawn) [Compound 11o, N-Hydroxy-8-(methylsulfonamido)chromane-2-carboxamide] yielded a melting point of 181 to 183 °C.
Regarding `Cc1ccc(S(=O)(=O)Nc2cccc3c2OC(C(=O)NO)CC3)cc1` (stereo not drawn) [Compound 11p, N-Hydroxy-8-((4-methylphenyl)sulfonamido)chromane-2-carboxamide], the melting point lay within 235 to 237 °C.
The compound `O=C(Nc1ccc2c(c1)CCC(C(=O)NO)O2)c1ccc(S(F)(F)(F)(F)F)cc1` (stereo not drawn) [Compound 14c, N-Hydroxy-6-(4-(pentafluoro-λ^6-sulfaneyl)benzamido)chromane-2-carboxamide] yielded a melting point of 214 to 216 °C.
Compound `O=C(NCc1ccc(Cl)c(C(F)(F)F)c1)Nc1cccc2c1OC(C(=O)NO)CC2` (stereo not drawn) [Compound 14i, 8-(3-(4-Chloro-3-(trifluoromethyl)benzyl)ureido)-N-hydroxychromane-2-carboxamide] registered a melting point of 195 to 197 °C.
On the same count and under the same terms, then `COc1ccc(COC(=O)Nc2ccc3c(c2)CCC(C(=O)NO)O3)cc1` (stereo not drawn) [Compound 14j, 4-Methoxybenzyl (2-(hydroxycarbamoyl)chroman-6-yl)carbamate], with 149 to 151 °C.
`O=C(Nc1ccc2c(c1)CCC(C(=O)NO)O2)OCc1ccccc1Cl` (stereo not drawn) [Compound 14k, 2-Chlorobenzyl (2-(hydroxycarbamoyl)chroman-6-yl)carbamate] came in with a melting point of 188 to 189 °C.
Same read-out and setting: then `O=C(NO)C1CCc2cc(NS(=O)(=O)c3cc(Cl)cc(Cl)c3)ccc2O1` (stereo not drawn) [Compound 14n, 6-((3,5-Dichlorophenyl)sulfonamido)-N-hydroxychromane-2-carboxamide], with 156 to 170 °C.

A word on the melting point: it is the temperature of the solid-liquid transition.
